{"source": "patent US12378224B2", "about": "(Dong-A Socio Holdings Co., Ltd., priority 2016, dated 2025)"}
{"molecular_target": "human MER (528-end) (Homo sapiens (Human), UniProt Q12866)", "sequence (Q12866 528-999 limits assumed)": "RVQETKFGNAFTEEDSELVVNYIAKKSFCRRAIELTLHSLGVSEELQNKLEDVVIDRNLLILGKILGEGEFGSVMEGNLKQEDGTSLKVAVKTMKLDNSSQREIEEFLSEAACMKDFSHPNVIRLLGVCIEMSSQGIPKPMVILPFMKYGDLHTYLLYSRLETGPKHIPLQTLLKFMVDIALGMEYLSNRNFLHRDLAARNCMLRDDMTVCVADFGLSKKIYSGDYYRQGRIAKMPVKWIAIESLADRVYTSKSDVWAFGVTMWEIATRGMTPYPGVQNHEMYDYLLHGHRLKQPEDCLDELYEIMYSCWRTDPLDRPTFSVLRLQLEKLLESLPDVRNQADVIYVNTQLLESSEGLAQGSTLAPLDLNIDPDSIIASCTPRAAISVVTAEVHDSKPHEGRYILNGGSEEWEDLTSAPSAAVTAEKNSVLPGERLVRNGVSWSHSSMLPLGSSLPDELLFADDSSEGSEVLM", "experiment": "HTRF Kinase Activity Biochemical Assay (KinEASE-TK)", "settings": "10 uM ATP", "in_short": "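Recombinant human MER (528-end) phosphorylated biotin-TK peptide substrate, 1 h at room temperature. Reaction stopped with detection buffer containing 0.375 nM Eu3+-cryptate anti-TK antibody and 0.062 uM streptavidin-XL665, 1 h further. Activity taken as HTRF ratio 665/620 nm ×10,000, 340 nm excitation.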", "units": {"IC50": "nM"}}
{"smiles": "Cn1cc(-c2cnc(N)c(C(=O)N[C@@H]3CCN(C(=O)Oc4cccc(-c5ccc(CNC6CNC6)cc5)c4)C3)c2)cn1", "note": "[Example 306, 4′-((azetidin-3-ylamino)methyl)-[1,1′-biphenyl]-3-yl (R)-3-(2-amino-5-(1-methyl-1H-pyrazol-4-yl)nicotinamido)pyrrolidine-1-carboxylate]", "IC50": "100 to 1000"}
{"smiles": "Cn1cc(-c2cnc(N)c(C(=O)N[C@@H]3CCN(C(=O)Oc4cccc(-c5ccc(CNCCN)cc5)c4)C3)c2)cn1", "note": "[Example 307, 4′-(((2-aminoethyl)amino)methyl)-[1,1′-biphenyl]-3-yl (R)-3-(2-amino-5-(1-methyl-1H-pyrazol-4-yl)nicotinamido)pyrrolidine-1-carboxylate]", "IC50": "100 to 1000"}
{"smiles": "CN(C)CCNCc1ccc(-c2cccc(OC(=O)N3CC[C@@H](NC(=O)c4cc(-c5cnn(C)c5)cnc4N)C3)c2)cc1", "note": "[Example 308, 4′-(((2-(dimethylamino)ethyl)amino)methyl)-[1,1′-biphenyl]-3-yl (R)-3-(2-amino-5-(1-methyl-1H-pyrazol-4-yl)nicotinamido)pyrrolidine-1-carboxylate]", "IC50": "100 to 1000"}
{"smiles": "CN1CC[C@@H](NCc2ccc(-c3cccc(OC(=O)N4CC[C@@H](NC(=O)c5cc(-c6cnn(C)c6)cnc5N)C4)c3)cc2)C1", "note": "[Example 310, 4′-((((R)-1-methylpyrrolidin-3-yl)amino)methyl)-[1,1′-biphenyl]-3-yl (R)-3-(2-amino-5-(1-methyl-1H-pyrazol-4-yl)nicotinamido)pyrrolidine-1-carboxylate]", "IC50": "100 to 1000"}
{"smiles": "CN(C)C1CCN(Cc2ccc(-c3cccc(OC(=O)N4CC[C@@H](NC(=O)c5cc(-c6cnn(C)c6)cnc5N)C4)c3)cc2)C1", "note": "(stereo partly drawn) [Example 311, 4′-((3-(dimethylamino)pyrrolidin-1-yl)methyl)-[1,1′-biphenyl]-3-yl (3R)-3-(2-amino-5-(1-methyl-1H-pyrazol-4-yl)nicotinamido)pyrrolidine-1-carboxylate]", "IC50": "100 to 1000"}
{"smiles": "Cn1cc(-c2cnc(N)c(C(=O)N[C@@H]3CCN(C(=O)Oc4cccc(-c5ccc(CNC[C@@H]6CCCN6)cc5)c4)C3)c2)cn1", "note": "[Example 312, 4′-(((((S)-pyrrolidin-2-yl)methyl)amino)methyl)-[1,1′-biphenyl]-3-yl (R)-3-(2-amino-5-(1-methyl-1H-pyrazol-4-yl)nicotinamido)pyrrolidine-1-carboxylate]", "IC50": "100 to 1000"}
{"smiles": "Cn1cc(-c2cnc(N)c(C(=O)N[C@@H]3CCN(C(=O)Oc4cccc(-c5ccc(CN[C@@H]6CCNC6)cc5)c4)C3)c2)cn1", "note": "[Example 313, 4′-((((R)-pyrrolidin-3-yl)amino)methyl)-[1,1′-biphenyl]-3-yl (R)-3-(2-amino-5-(1-methyl-1H-pyrazol-4-yl)nicotinamido)pyrrolidine-1-carboxylate]", "IC50": "100 to 1000"}
{"smiles": "CCN1CCC[C@@H]1CNCc1ccc(-c2cccc(OC(=O)N3CC[C@@H](NC(=O)c4cc(-c5cnn(C)c5)cnc4N)C3)c2)cc1", "note": "[Example 314, 4′-(((((R)-1-ethylpyrrolidin-2-yl)methyl)amino)methyl)-[1,1′-biphenyl]-3-yl (R)-3-(2-amino-5-(1-methyl-1H-pyrazol-4-yl)nicotinamido)pyrrolidine-1-carboxylate]", "IC50": "100 to 1000"}
{"smiles": "Cn1cc(-c2cnc(N)c(C(=O)N[C@@H]3CCN(C(=O)Oc4cccc(-c5ccc(CN[C@H]6CCCNC6)cc5)c4)C3)c2)cn1", "note": "[Example 315, 4′-((((S)-piperidin-3-yl)amino)methyl)-[1,1′-biphenyl]-3-yl (R)-3-(2-amino-5-(1-methyl-1H-pyrazol-4-yl)nicotinamido)pyrrolidine-1-carboxylate]", "IC50": "100 to 1000"}
{"smiles": "Cn1cc(-c2cnc(N)c(C(=O)N[C@@H]3CCN(C(=O)Oc4cccc(-c5ccc(CN6CCC[C@@H](N)C6)cc5)c4)C3)c2)cn1", "note": "[Example 316, 4′-(((R)-3-aminopiperidin-1-yl)methyl)-[1,1′-biphenyl]-3-yl (R)-3-(2-amino-5-(1-methyl-1H-pyrazol-4-yl)nicotinamido)pyrrolidine-1-carboxylate]", "IC50": "100 to 1000"}
